Values joined by “and” are separate entries in the source; they are usually repeats but may differ in a detail not shown here. Equal entries are not always repeated.
Assays:
Assay type in all cases: in vivo
Details in all cases: 21 days after application
[1] = test system: Ambrosia artimisifolia (AMBEL); assay: Herbicidal action, pre-emergence glasshouse test, Ambrosia artimisifolia
Description: (§1) Seeds of a variety of test species were sown in standard soil in pots. After cultivation for one day (pre-emergence) under controlled conditions in a glasshouse (at 24/18° C., at day/night; 16 hours light; 65% humidity), the plants were sprayed with an aqueous spray solution derived from the formulation of the technical active ingredient dissolved in acetone plus formulation A containing 10.56 wt % Emulsogen EL, 42.22 wt % N-MethylPyrrolidon, 2.22 wt % DPG-Monoethyl ether at a 1:20 ratio (technical active ingredient:formulation A). To achieve the mixture treatments, the appropriate concentration of the mixture partner (commercial formulation) was added to the solution in order to achieve the desired experimental compound:mixture partner ratio).
(§2) After application, the test plants were grown in a glasshouse under controlled conditions (at 24/18° C. day/night; 16 hours light; 65% humidity) and watered twice daily. Herbicidal activity was evaluated 21 days after application in a 100-0 scale (100=total damage to plant; 0=no damage to plant).

Setaria fabarii (SETFA) = assay: Herbicidal action, pre-emergence glasshouse test, Setaria fabarii
Description: as §1, §2

Ipomea purpurea (PHBPU) = assay: Herbicidal action, pre-emergence glasshouse test, Ipomea purpurea
Description: as §1, §2

[2] = test system: Euphorbia heterophylla (EPHHL); assay: Herbicidal action, pre-emergence glasshouse test, Euphorbia heterophylla
Description: as §1, §2

[3] = test system: Digitaria sanguinalis (DIGSA); assay: Herbicidal action, pre-emergence glasshouse test, Digitaria sanguinalis
Description: as §1, §2

Bidens pilosa (BIDPI) = assay: Herbicidal action, pre-emergence glasshouse test, Bidens pilosa
Description: as §1, §2

In the case of COC1=C(C)C(O)N(c2cc(C(C)(C)C)ncn2)C1=O (stereo not drawn) [Compound 1.1], the “Activity (% of untreated) Observed” value ([1]; applied alone at 100 g/ha) is reported as 37.5 % of untreated, the “Activity (% of untreated) Observed” value ([1]; applied alone at 250 g/ha) is reported as 85 % of untreated and the “Activity (% of untreated) Observed” value (Setaria fabarii (SETFA); alone 100 g/ha) is reported as 0 % of untreated. For the same compound, the “Activity (% of untreated) Observed” value (Setaria fabarii (SETFA); alone 250 g/ha) was 70 % of untreated, the “Activity (% of untreated) Observed” value (Ipomea purpurea (PHBPU); applied alone at 100 g/ha) was 0 % of untreated and the “Activity (% of untreated) Observed” value (Ipomea purpurea (PHBPU); applied alone at 250 g/ha) was 5 % of untreated. For the same compound, the “Activity (% of untreated) Observed” value ([2]; applied alone at 100 g/ha) was 12.5 % of untreated, the “Activity (% of untreated) Observed” value ([2]; applied alone at 250 g/ha) was 70 % of untreated and the “Activity (% of untreated) Observed” value ([3]; alone 100 g/ha) was 0 % of untreated. For the same compound, the “Activity (% of untreated) Observed” value ([3]; alone 250 g/ha) was 65 % of untreated.

For COC1=C(C)C(O)N(c2cc(C(C)(C)C)on2)C1=O (stereo not drawn) [Compound 1.2], the “Activity (% of untreated) Observed” value ([1]; applied alone at 100 g/ha) was 42.5 % of untreated, the “Activity (% of untreated) Observed” value ([1]; applied alone at 250 g/ha) was 92.5 % of untreated and the “Activity (% of untreated) Observed” value (Setaria fabarii (SETFA); alone 100 g/ha) was 0 % of untreated. The “Activity (% of untreated) Observed” value (Setaria fabarii (SETFA); alone 250 g/ha) was 72.5 % of untreated, the “Activity (% of untreated) Observed” value (Ipomea purpurea (PHBPU); applied alone at 100 g/ha) was 2.5 % of untreated and the “Activity (% of untreated) Observed” value (Ipomea purpurea (PHBPU); applied alone at 250 g/ha) was 35 % of untreated. The “Activity (% of untreated) Observed” value (Bidens pilosa (BIDPI); applied alone at 100 g/ha) was 65 % of untreated, the “Activity (% of untreated) Observed” value (Bidens pilosa (BIDPI); applied alone at 250 g/ha) was 85 % of untreated and the “Activity (% of untreated) Observed” value ([2]; applied alone at 100 g/ha) was 10 % of untreated. The “Activity (% of untreated) Observed” value ([2]; applied alone at 250 g/ha) was 80 % of untreated, the “Activity (% of untreated) Observed” value ([3]; alone 100 g/ha) was 0 % of untreated and the “Activity (% of untreated) Observed” value ([3]; alone 250 g/ha) was 5 % of untreated.

With CC1=C(Cl)C(=O)N(c2cc(C(C)(C)C)on2)C1O (stereo not drawn) [Compound 1.3] the “Activity (% of untreated) Observed” value ([1]; applied alone at 31.25 g/ha) was 85 % of untreated, the “Activity (% of untreated) Observed” value ([1]; applied alone at 62.5 g/ha) was 97 % of untreated and the “Activity (% of untreated) Observed” value ([1]; applied alone at 125 g/ha) was 85 % of untreated and 98.5 % of untreated. The “Activity (% of untreated) Observed” value ([1]; applied alone at 250 g/ha) was 86 % of untreated and 99 % of untreated, the “Activity (% of untreated) Observed” value ([1]; applied alone at 500 g/ha) was 98.5 % of untreated and 99 % of untreated and the “Activity (% of untreated) Observed” value (Setaria fabarii (SETFA); alone 31.25 g/ha) was 90 % of untreated. For the same compound, the “Activity (% of untreated) Observed” value (Setaria fabarii (SETFA); alone 62.5 g/ha) was 100 % of untreated, the “Activity (% of untreated) Observed” value (Ipomea purpurea (PHBPU); applied alone at 31.25 g/ha) was 67.5 % of untreated and the “Activity (% of untreated) Observed” value (Ipomea purpurea (PHBPU); applied alone at 62.5 g/ha) was 97.5 % of untreated. For the same compound, the “Activity (% of untreated) Observed” value (Ipomea purpurea (PHBPU); applied alone at 125 g/ha) was 40 % of untreated and 50 % of untreated, the “Activity (% of untreated) Observed” value (Ipomea purpurea (PHBPU); applied alone at 250 g/ha) was 85 % of untreated and 72.5 % of untreated and the “Activity (% of untreated) Observed” value (Ipomea purpurea (PHBPU); applied alone at 500 g/ha) was 100 % of untreated and 90 % of untreated. For the same compound, the “Activity (% of untreated) Observed” value ([2]; applied alone at 31.25 g/ha) was 5 % of untreated, the “Activity (% of untreated) Observed” value ([2]; applied alone at 62.5 g/ha) was 15 % of untreated and the “Activity (% of untreated) Observed” value ([2]; applied alone at 125 g/ha) was 35 % of untreated. For the same compound, the “Activity (% of untreated) Observed” value ([2]; applied alone at 250 g/ha) was 87.5 % of untreated, the “Activity (% of untreated) Observed” value ([2]; applied alone at 500 g/ha) was 100 % of untreated and the “Activity (% of untreated) Observed” value ([3]; alone 31.25 g/ha) was 0 % of untreated. The “Activity (% of untreated) Observed” value ([3]; alone 62.5 g/ha) was 65 % of untreated, the “Activity (% of untreated) Observed” value ([3]; alone 125 g/ha) was 99 % of untreated and the “Activity (% of untreated) Observed” value ([3]; alone 250 g/ha) was 100 % of untreated. For the same compound, the “Activity (% of untreated) Observed” value ([3]; alone 500 g/ha) was 99.5 % of untreated and 99 % of untreated.

In the case of CS(=O)(=O)c1ccc(C(=O)C2C(=O)CCCC2=O)c([N+](=O)[O-])c1 [Mesotrione, reference compound], the “Activity (% of untreated) Observed” value ([1]; applied alone at 10 g/ha) is reported as 7.5 % of untreated, the “Activity (% of untreated) Observed” value ([1]; applied alone at 50 g/ha) is reported as 12.5 % of untreated and the “Activity (% of untreated) Observed” value ([1]; applied alone at 100 g/ha) is reported as 25 % of untreated. The “Activity (% of untreated) Observed” value (Setaria fabarii (SETFA); alone 10 g/ha) was 0 % of untreated, the “Activity (% of untreated) Observed” value (Setaria fabarii (SETFA); alone 50 g/ha) was 35 % of untreated and the “Activity (% of untreated) Observed” value (Setaria fabarii (SETFA); alone 100 g/ha) was 57.5 % of untreated. The “Activity (% of untreated) Observed” value (Ipomea purpurea (PHBPU); applied alone at 25 g/ha) was 0 % of untreated, the “Activity (% of untreated) Observed” value (Ipomea purpurea (PHBPU); applied alone at 50 g/ha) was 0 % of untreated and the “Activity (% of untreated) Observed” value (Ipomea purpurea (PHBPU); applied alone at 100 g/ha) was 50 % of untreated. The “Activity (% of untreated) Observed” value (Bidens pilosa (BIDPI); applied alone at 10 g/ha) was 10 % of untreated, the “Activity (% of untreated) Observed” value (Bidens pilosa (BIDPI); applied alone at 25 g/ha) was 30 % of untreated and the “Activity (% of untreated) Observed” value ([3]; alone 10 g/ha) was 45 % of untreated. The “Activity (% of untreated) Observed” value ([3]; alone 50 g/ha) was 5 % of untreated and the “Activity (% of untreated) Observed” value ([3]; alone 100 g/ha) was 0 % of untreated.

In the case of Bicyclopyrone [reference compound], the “Activity (% of untreated) Observed” value ([1]; applied alone at 10 g/ha) is reported as 70 % of untreated, the “Activity (% of untreated) Observed” value ([1]; applied alone at 50 g/ha) is reported as 12.5 % of untreated and the “Activity (% of untreated) Observed” value ([1]; applied alone at 100 g/ha) is reported as 25 % of untreated. The “Activity (% of untreated) Observed” value (Setaria fabarii (SETFA); alone 10 g/ha) was 17.5 % of untreated, the “Activity (% of untreated) Observed” value (Setaria fabarii (SETFA); alone 50 g/ha) was 35 % of untreated and the “Activity (% of untreated) Observed” value (Setaria fabarii (SETFA); alone 100 g/ha) was 57.5 % of untreated. For the same compound, the “Activity (% of untreated) Observed” value (Ipomea purpurea (PHBPU); applied alone at 10 g/ha) was 0 % of untreated, the “Activity (% of untreated) Observed” value (Ipomea purpurea (PHBPU); applied alone at 25 g/ha) was 0 % of untreated and the “Activity (% of untreated) Observed” value (Ipomea purpurea (PHBPU); applied alone at 50 g/ha) was 0 % of untreated. The “Activity (% of untreated) Observed” value (Ipomea purpurea (PHBPU); applied alone at 100 g/ha) was 50 % of untreated, the “Activity (% of untreated) Observed” value (Bidens pilosa (BIDPI); applied alone at 10 g/ha) was 0 % of untreated and the “Activity (% of untreated) Observed” value (Bidens pilosa (BIDPI); applied alone at 25 g/ha) was 5 % of untreated. The “Activity (% of untreated) Observed” value ([2]; applied alone at 10 g/ha) was 32.5 % of untreated, the “Activity (% of untreated) Observed” value ([2]; applied alone at 25 g/ha) was 77.5 % of untreated and 95 % of untreated and the “Activity (% of untreated) Observed” value ([2]; applied alone at 50 g/ha) was 98.5 % of untreated. For the same compound, the “Activity (% of untreated) Observed” value ([2]; applied alone at 100 g/ha) was 100 % of untreated, the “Activity (% of untreated) Observed” value ([3]; alone 10 g/ha) was 87.5 % of untreated and the “Activity (% of untreated) Observed” value ([3]; alone 50 g/ha) was 5 % of untreated. The “Activity (% of untreated) Observed” value ([3]; alone 100 g/ha) was 0 % of untreated.

In the case of S-Metolachlor, the “Activity (% of untreated) Observed” value (Setaria fabarii (SETFA); alone 80 g/ha) is reported as 85 % of untreated, the “Activity (% of untreated) Observed” value (Setaria fabarii (SETFA); alone 200 g/ha) is reported as 98.5 % of untreated and the “Activity (% of untreated) Observed” value ([3]; alone 80 g/ha) is reported as 65 % of untreated. For the same compound, the “Activity (% of untreated) Observed” value ([3]; alone 200 g/ha) was 100 % of untreated.

Reference: US10512264B2, “Herbicidal mixtures” (Syngenta Participations AG, priority 2015, dated 2019)
